Reference: US6191282A, “Substituted 5-membered ring heterocycles comprising a bicyclic or tricyclic group their preparation and their use” (Hoechst Marion Roussel, priority 1993, dated 2001)
Counter-ions that a name gives are not always drawn. Like-named read-outs stand apart in the source and are kept apart here.

Experiments:
[1] = test system: gel-filtered human thrombocytes; assay: Inhibition of the aggregation of gel-filtered human thrombocytes following stimulation with ADP or thrombin (Test method 1); assay type: cell-based; conditions: 1 mg/ml fibrinogen, 37° C., GFP from 2-4 donors
Procedure: As a functional test, measurement is made of the inhibition of the aggregation of gel-filtered human thrombocytes, following stimulation with ADP or thrombin, by the compounds according to the invention.
For this purpose, human thrombocytes were isolated from platelet-rich plasma (PRP) by gel filtration on Sepharose 2 B. The resulting suspension of gel-filtered platelets (GFP), which contained 3×10^8 platelets/ml, was activated in the presence of 1 mg/ml of fibrinogen either with 10 μM ADP or with 0.1 U/ml thrombin, and stirred in an aggregometer (PAP 4, Biodata, Hatboro, Penna., USA) at 37° C. and at 1000 revolutions per minute. The maximum increase in the translucency is taken as a measure of the aggregation. The test substances were added to the GFP at 37° C. and 2 min before activating with ADP or thrombin.

[2] = target: T1, isolated fibrinogen receptor (glycoprotein IIb/IIIa) (Homo sapiens, UniProt P05106+P08514); assay: Inhibition of 125I-fibrinogen binding to the isolated, immobilized receptor (glycoprotein IIb/IIIa) (Test method 3); conditions: isolated receptor immobilized in microtitre plates
T1 construct: isolated from human thrombocytes and immobilized in microtitre plates; from tissue; host or cells: human thrombocytes (platelets), receptor isolated
Procedure: The inhibition of the binding of fibrinogen to its receptor (glycoprotein IIb/IIIa) which is brought about by the compounds according to the invention is tested on the isolated receptor, which was isolated from human thrombocytes and immobilized in microtitre plates.

[3] = Homo sapiens, ADP-stimulated (10 μM ADP), read-out: IC50, inhibition of thrombocyte aggregation, ADP-stimulated
[4] = Homo sapiens, Thrombin-stimulated (0.1 U/ml thrombin), read-out: IC50, inhibition of thrombocyte aggregation, Thrombin-stimulated
[5] = read-out: Ki, inhibition of the binding of 125I-fibrinogen, ADP-stimulated
[6] = ADP-stimulated (10 μM ADP), read-out: IC50, inhibition of thrombocyte aggregation, ADP-stimulated
[7] = Thrombin-stimulated (0.1 U/ml thrombin), read-out: IC50, inhibition of thrombocyte aggregation, Thrombin-stimulated
[8] = Ki, inhibition of the binding of 125I-fibrinogen, ADP-stimulated

T1 sequence (P08514 32-887 limits assumed): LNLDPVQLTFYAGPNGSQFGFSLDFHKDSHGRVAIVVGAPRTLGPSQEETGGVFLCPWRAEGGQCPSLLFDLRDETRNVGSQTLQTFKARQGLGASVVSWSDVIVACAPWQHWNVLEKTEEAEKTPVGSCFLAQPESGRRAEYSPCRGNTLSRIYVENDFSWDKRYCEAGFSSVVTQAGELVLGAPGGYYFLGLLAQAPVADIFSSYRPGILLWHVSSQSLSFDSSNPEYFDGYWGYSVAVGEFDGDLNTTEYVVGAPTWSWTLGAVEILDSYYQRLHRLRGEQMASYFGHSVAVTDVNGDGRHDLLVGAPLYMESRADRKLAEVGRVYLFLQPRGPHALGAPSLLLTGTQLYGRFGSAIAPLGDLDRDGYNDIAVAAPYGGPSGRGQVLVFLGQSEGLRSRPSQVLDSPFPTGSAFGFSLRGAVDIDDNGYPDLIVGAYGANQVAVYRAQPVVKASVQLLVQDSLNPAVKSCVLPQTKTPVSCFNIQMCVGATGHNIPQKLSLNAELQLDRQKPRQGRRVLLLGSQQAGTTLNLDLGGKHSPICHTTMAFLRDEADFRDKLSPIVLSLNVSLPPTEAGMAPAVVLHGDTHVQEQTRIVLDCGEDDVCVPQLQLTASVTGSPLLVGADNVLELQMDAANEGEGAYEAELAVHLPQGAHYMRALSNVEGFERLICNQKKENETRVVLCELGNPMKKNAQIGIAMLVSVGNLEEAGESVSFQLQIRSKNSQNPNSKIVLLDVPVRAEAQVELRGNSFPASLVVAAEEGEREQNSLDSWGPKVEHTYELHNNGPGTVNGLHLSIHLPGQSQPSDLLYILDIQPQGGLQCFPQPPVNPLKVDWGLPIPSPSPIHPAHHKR
T1 sequence (P08514 891-1039 partner limits assumed): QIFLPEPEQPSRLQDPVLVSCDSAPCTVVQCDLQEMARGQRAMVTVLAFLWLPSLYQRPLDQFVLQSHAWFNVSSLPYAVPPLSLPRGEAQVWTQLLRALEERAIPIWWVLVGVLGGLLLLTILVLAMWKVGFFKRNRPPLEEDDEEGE
T1 sequence (P05106 27-788): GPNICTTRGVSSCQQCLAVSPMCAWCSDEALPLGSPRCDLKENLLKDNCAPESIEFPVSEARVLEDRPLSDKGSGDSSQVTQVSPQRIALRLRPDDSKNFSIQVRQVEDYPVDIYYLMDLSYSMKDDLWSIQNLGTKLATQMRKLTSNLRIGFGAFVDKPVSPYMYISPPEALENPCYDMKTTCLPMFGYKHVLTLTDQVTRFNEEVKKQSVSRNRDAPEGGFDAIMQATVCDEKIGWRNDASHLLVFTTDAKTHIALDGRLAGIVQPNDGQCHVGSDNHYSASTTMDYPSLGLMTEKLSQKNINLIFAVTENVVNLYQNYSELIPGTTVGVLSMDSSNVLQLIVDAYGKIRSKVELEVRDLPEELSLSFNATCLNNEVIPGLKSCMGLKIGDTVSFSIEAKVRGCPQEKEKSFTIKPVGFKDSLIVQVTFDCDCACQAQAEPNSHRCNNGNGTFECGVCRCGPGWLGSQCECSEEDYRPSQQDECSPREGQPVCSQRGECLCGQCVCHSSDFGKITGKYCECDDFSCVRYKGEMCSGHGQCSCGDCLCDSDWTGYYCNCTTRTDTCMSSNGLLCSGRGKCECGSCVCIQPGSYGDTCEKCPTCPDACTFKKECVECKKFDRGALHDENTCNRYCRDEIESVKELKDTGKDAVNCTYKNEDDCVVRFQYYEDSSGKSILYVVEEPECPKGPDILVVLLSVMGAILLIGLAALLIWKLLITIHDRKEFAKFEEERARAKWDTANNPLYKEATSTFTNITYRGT

| IC50 [1, 3] [nM] | IC50 [1, 4] [nM] | Structure (SMILES) | Ki [2, 5] [nM] | IC50 [1, 6] [nM] | IC50 [1, 7] [nM] | Ki [2, 8] [nM] |
| --- | --- | --- | --- | --- | --- | --- |
| 200 | 200 | CC1(c2ccc(C(=N)N)cc2)NC(=O)N(CC(=O)NC(CC(=O)O)c2ccccc2)C1=O (racemic) [Example 13, (R,S)-3-(((R,S)-4-(4-(Aminoiminomethyl)phenyl)-4-methyl-2,5-dioxoimidazolidin-1-yl)acetylamino)-3-phenylpropionic acid hydrochloride] | 0.748 |  |  |  |
| 400 | 250 | CC1(c2ccc(C(=N)N)cc2)NC(=O)N(CC(=O)NC(CC(=O)O)c2ccc(C(=O)O)cc2)C1=O (racemic) [Example 40, (R,S)-3-(((R,S)-4-(4-(Aminoiminomethyl)phenyl)-4-methyl-2,5-dioxoimidazolidin-1-yl)acetylamino)-3-(4-hydroxycarbonylphenyl)propionic acid] | 1.99 |  |  |  |
| 550 | 400 | CN1C(=O)N(CC(=O)NC(CC(=O)O)c2ccccc2)C(=O)C1(C)c1ccc(C(=N)N)cc1 (racemic) [Example 50, (R,S)-3-(((R,S)-4-(4-(Aminoiminomethyl)phenyl)-3,4-dimethyl-2,5-dioxoimidazolidin-1-yl)acetylamino)-3-phenylpropionic acid] |  |  |  |  |
| 100 | 200 | CCOc1ccc(C(CC(=O)O)NC(=O)CN2C(=O)NC(C)(c3ccc(C(=N)N)cc3)C2=O)cc1 (racemic) [Example 37, (R,S)-3-(((R,S)-4-(4-(Aminoiminomethyl)phenyl)-4-methyl-2,5-dioxoimidazolidin-1-yl)acetylamino)-3-(4-ethoxyphenyl)propionic acid] |  |  |  |  |
| 100 | 150 | CC1(c2ccc(C(=N)N)cc2)NC(=O)N(CC(=O)NC(CC(=O)O)c2cccnc2)C1=O (racemic) [Example 47, (R,S)-3-(((R,S)-4-(4-(Aminoiminomethyl)phenyl)-4-methyl-2,5-dioxoimidazolidin-1-yl)acetylamino)-3-(3-pyridyl)propionic acid] |  |  |  |  |
| 2000 | 1000 | CC(C)(C)OC(=O)NN(CC(=O)O)C(=O)CN1C(=O)NC(=Cc2ccc(C(=N)N)cc2)C1=O [Example 20] |  |  |  |  |
| 200 | 150 | CCCCS(=O)(=O)NC(CNC(=O)CN1C(=O)NC(C)(c2ccc(C(=N)N)cc2)C1=O)C(=O)O (racemic) [Example 32, (R,S)-3-(((R,S)-4-(4-(Aminoiminomethyl)phenyl)-4-methyl-2,5-dioxoimidazolidin-1-yl)acetylamino)-2-butylsulphonylaminopropionic acid] |  |  |  |  |
| 300 | 300 | CC1(c2ccc(C(=N)N)cc2)NC(=O)N(CC(=O)NC[C@H](N)C(=O)O)C1=O (stereo partly drawn) [Example 7, 2-Amino-3-(((R,S)-4-(4-(aminoiminomethyl)-phenyl)-4-methyl-2,5-dioxoimidazolidin-1-yl)acetylamino)propionic acid hydrochloride] |  |  |  |  |

More lines, now with the values behind:

| Structure (SMILES) | IC50 [1, 3] [nM] | IC50 [1, 4] [nM] | Ki [2, 5] [nM] | IC50 [1, 6] [nM] | IC50 [1, 7] [nM] | Ki [2, 8] [nM] |
| --- | --- | --- | --- | --- | --- | --- |
| CC1(c2ccc(C(=N)N)cc2)C(=O)N(CC(=O)N[C@@H](CC(=O)O)C(=O)N[C@H](C(=O)O)c2ccccc2)C(=O)N1Cc1ccccc1 (stereo partly shown) [Example 25] | 30 | 50 | 0.175 |  |  |  |
| N=C(N)c1ccc(C2(Cc3ccccc3)NC(=O)N(CC(=O)N[C@@H](CC(=O)O)C(=O)N[C@H](C(=O)O)c3ccccc3)C2=O)cc1 (stereo partly drawn) [Example 28, ((R,S)-4-(4-(Aminoiminomethyl)phenyl)-4-benyl-2,5-dioxoimidazolidin-1-yl)acetyl-L-aspartyl-L-phenylglycine] | 25 | 40 | 0.078 |  |  |  |
| CC1(c2ccc(C(=N)N)cc2)NC(=O)N(CC(=O)NC(CC(=O)O)c2ccc(-c3ccccc3)cc2)C1=O (racemic) [Example 46, (R,S)-3-(((R,S)-4-(4-Aminoiminomethyl)phenyl)-4-methyl-2,5-dioxoimidazolidin-1-yl)acetylamino)-3-(4-phenylphenyl)propionic acid] | 100 | 100 | 1.23 |  |  |  |
| CC1(c2ccc(C(=N)N)cc2)NC(=O)N(CC(=O)N[C@H](CC(=O)O)c2ccccc2)C1=O (single isomer, unassigned) [Example 60, (R)-3-(((R or S)-4-(4-(aminoiminomethyl)phenyl)-4-methyl-2,5-dioxoimidazolidin-1-yl)acetylamino)-3-phenylpropionic acid] |  |  |  | 5000 | 4000 |  |
| COC(=O)[C@@H](NC(=O)[C@H](CC(=O)O)NC(=O)CN1C(=O)NC(C)(c2ccc(C(=N)N)cc2)C1=O)c1ccccc1 (stereo partly drawn) [Example 23, ((R,S)-4-(4-(Aminoiminomethyl)phenyl)-4-methyl-2,5-dioxoimidazolidin-1-yl)acetyl-L-aspartyl-L-phenylglycine methyl ester] | 30 | 50 |  |  |  |  |
| CC1(c2ccc(C(=N)N)cc2)NC(=O)N(CC(=O)N[C@@H](CC(=O)O)C(=O)NC23CC4CC(CC(C4)C2)C3)C1=O (stereo partly drawn) [Example 68, (2-((R,S)-4-(4-(aminoiminomethyl)phenyl)-4-methyl-2,5-dioxoimidazolidin-1-yl)acetyl)-L-aspartyl-1-adamantylamide] | 50 | 45 |  |  |  |  |
| CC1(c2ccc(C(=N)N)cc2)NC(=O)N(CC(=O)N[C@@H](CC(=O)O)C(=O)N[C@H](C(=O)O)c2ccccc2)C1=O (single isomer, unassigned) [Example 22, ((R or S)-4-(4-(Aminoiminomethyl)phenyl)-4-methyl-2,5-dioxoimidazolidin-1-yl)acetyl-L-aspartyl-L-phenylglycine] |  |  |  | 25 | 50 | 0.15 |
| CC1(c2ccc(C(=N)N)cc2)NC(=O)N(CC(=O)NC(CC(=O)O)c2cccc(OCc3ccccc3)c2)C1=O (racemic) [Example 41, (R,S)-3-(((R,S)-4-(4-(Aminoiminomethyl)phenyl)-4-methyl-2,5-dioxoimidazolidin-1-yl)acetylamino)-3-(3-benzyloxyphenyl)propionic acid] | 100 | 150 |  |  |  |  |
| CC1(c2ccc(C(=N)N)cc2)NC(=O)N(CC(=O)N[C@@H](CC(=O)O)C(=O)N[C@H](C(=O)O)c2ccccc2)C1=O (single isomer, unassigned) [Example 21, ((S or R)-4-(4-(Aminoiminomethyl)phenyl)-4-methyl-2,5-dioxoimidazolidin-1-yl)acetyl-L-aspartyl-L-phenylglycine] |  |  |  | 800 | 500 | 1.9 |
| N=C(N)c1ccc(C2(C3CC3)NC(=O)N(CC(=O)N[C@@H](CC(=O)O)C(=O)N[C@H](C(=O)O)c3ccccc3)C2=O)cc1 (stereo partly drawn) [Example 26, ((R,S)-4-(4-(Aminoiminomethyl)phenyl)-4-cyclopropyl-2,5-dioxoimidazolidin-1-yl)acetyl-L-aspartyl-L-phenylglycine] | 20 | 40 | 0.117 |  |  |  |
| CC1(c2ccc(C(=N)N)cc2)NC(=O)N(CC(=O)N[C@@H](CC(=O)O)C(=O)NC2C3CC4CC(C3)CC2C4)C1=O (stereo partly drawn) [Example 69, (2-((R,S)-4-(4-(Aminoiminomethyl)phenyl)-4-methyl-2,5-dioxoimidazolidin-1-yl)acetyl)-L-aspartyl-2-adamantylamide] | 25 | 45 |  |  |  |  |
| CC1(c2ccc(C(=N)N)cc2)NC(=O)N(CC(=O)NC(CC(=O)O)c2cccc([N+](=O)[O-])c2)C1=O (racemic) [Example 39, (R,S)-3-(((R,S)-4-(4-(Aminoiminomethyl)phenyl)-4-methyl-2,5-dioxoimidazolidin-1-yl)acetylamino)-3-(3-nitrophenyl)propionic acid] | 80 | 150 | 0.948 |  |  |  |
| CCC1(c2ccc(C(=N)N)cc2)NC(=O)N(CC(=O)N[C@@H](CC(=O)O)C(=O)N[C@H](C(=O)O)c2ccccc2)C1=O (stereo partly drawn) [Example 27, ((R,S)-4-(4-(Aminoiminomethyl)phenyl)-4-ethyl-2,5-dioxoimidazolidin-1-yl)acetyl-L-aspartyl-L-phenylglycine] | 25 | 40 | 0.107 |  |  |  |
